Data taken from US12612412B2, “Antiviral heterocyclic compounds” (Enanta Pharmaceuticals, Inc., priority 2021, dated 2026).
pEC50: −log10 of the molar value. Like-named read-outs stand apart in the source and are kept apart here.

Experiments:
[1] = system: genotype A, "Long" strain RSV; experiment: RSV-A assay (CPE protection in Hep-2 cells, ATPlite readout); type: cell-based, Human respiratory syncytial virus (HRSV); settings: human respiratory syncytial virus, MOI 0.1, CPE protection
Method in brief: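 Hep-2 cells (8,000/well) infected with RSV Long strain at MOI 0.1 in the presence of 2-fold compound dilutions in duplicate. After 5 days, cell viability measured by ATPlite luminescence, normalized between virus-only and uninfected cell controls; EC50 reported.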

[2] = system: HMPV clinical isolate TN/1501/A1; experiment: HMPV antiviral assay Method-B (clinical isolate TN/1501/A1 in LLC-MK2 cells, ATP-Lite readout); type: cell-based, Human metapneumovirus (HMPV); settings: human metapneumovirus, LLC-MK2, 144 h, hMPV WT1501 (clinical isolate TN/1501/A1), 6 days
Method in brief: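 LLC-MK2 cells infected in suspension with TN/1501/A1 at MOI 0.014 in serum-free medium with 2 μg/mL TPCK-trypsin (final), incubated 6 days at 37° C. Compounds tested in duplicate, 10-point 3-fold dilutions from 10 μM. Cell health read by ATP-Lite luminescence, normalised to virus-only and cells-only controls; EC50 by four-parameter logistic fit.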

[3] = RSV-A Long strain, read-out: Human RSV-A (“Long”) EC50
[4] = genotype A “Long” strain RSV, read-out: Human RSV-A (“Long”)

Compound | pEC50 [1, 3] | pEC50 [2] | pEC50 [1, 4]
Cc1cnc2c(OC(F)F)cc(C(=O)NC[C@](O)(c3cc4c(c(-c5ccc(F)c(Cl)c5)n3)OC[C@@]4(C(N)=O)C(F)F)C(F)(F)F)cc2c1 [Example 1009] | > 6.70 | > 6.30 | 
COc1cc(C(=O)NC[C@](O)(c2cc3c(c(-c4ccc(F)cc4)n2)OC[C@]3(C)C(N)=O)C(F)(F)F)cc2cn(C3(O)CC3)nc12 [Example 821] |  | < 6.30 | > 6.70
Cc1cnc2c(Cl)cc(C(=O)NC[C@](O)(c3cc4c(c(-c5ccc(F)c(Br)c5F)n3)OC[C@]4(C)C(N)=O)C3CC3)cc2c1 [Example 1084] | > 6.70 | > 6.30 | 
Cc1cnc2c(OC(F)F)cc(C(=O)NC[C@](O)(c3cc4c(c(-c5ccc6c(c5)OC(F)(F)O6)n3)OC[C@]4(C)C(N)=O)C3CC3)cc2c1 [Example 538] |  | > 6.30 | > 6.70
COc1cc(C(=O)NC[C@](O)(c2cc3c(c(-c4cc(Cl)c(F)cc4F)n2)OC[C@]3(C)C(N)=O)C(F)(F)F)cc2cc(Br)cnc12 [Example 621] |  | > 6.30 | > 6.70
COc1cc(C(=O)NC[C@](O)(c2cc3c(c(-c4ccc5c(c4)OC(F)(F)O5)n2)OC[C@]3(C)C(N)=O)C2(F)CC2)cc2cc(C3CC3)nn12 [Example 716] |  | > 6.30 | > 6.70
C[C@]1(C(N)=O)COc2c1cc([C@@](O)(CNC(=O)c1cc(OC3CC3)n3nc(C4CC4)cc3c1)C1CC1)nc2-c1ccc(F)c(Cl)c1 [Example 491] |  | > 6.30 | > 6.70
C[C@]1(C(N)=O)COc2c1cc([C@@](O)(CNC(=O)c1cc(Cl)c3nn(C4CC4)cc3c1)C1CC1)nc2-c1cc(F)c(F)cc1F [Example 1148] | > 6.70 | > 6.30 | 
COc1cc(C(=O)NC[C@](O)(c2cc3c(c(-c4ccc(F)c(Cl)c4F)n2)OC[C@]3(C)C(N)=O)C2CC2)cc2cc(Br)c(Cl)nc12 [Example 1185] | > 6.70 | > 6.30 | 
COc1cc(C(=O)NC[C@](O)(c2cc3c(c(-c4c(F)ccc(Cl)c4F)n2)OC[C@]3(C)C(N)=O)C2CC2)cc2cn(C3(F)CC3)nc12 [Example 1165] | > 6.70 | > 6.30 | 
[2H]C([2H])([2H])[C@](O)(CNC(=O)c1cc(OC2CC2)c2ncccc2c1)c1cc2c(c(-c3ccc(F)cc3)n1)OC[C@]2(C)C(N)=O [Example 646] |  | < 6.30 | > 6.70
[2H]C([2H])([2H])[C@](O)(CNC(=O)c1cc(OC)c2nn(C3CC3)cc2c1)c1cc2c(c(-c3ccc(F)cc3)n1)OC[C@]2(C)C(N)=O [Example 645] |  | < 6.30 | > 6.70
COc1cc(C(=O)NC[C@](O)(c2cc3c(c(-c4cc(F)c(F)c(Cl)c4)n2)OC[C@]3(C)C(N)=O)C2CC2)cc2cc(Cl)c(C)nc12 [Example 786] |  | > 6.30 | > 6.70
COc1cc(C(=O)NC[C@](O)(c2cc3c(c(-c4cc(F)c(F)cc4Cl)n2)OC[C@]3(C)C(N)=O)C2CC2)cc2cc(Br)cnc12 [Example 660] |  | > 6.30 | > 6.70
COc1cc(C(=O)NC[C@@](O)(c2cc3c(c(-c4cc5c(cc4Cl)OC(F)(F)O5)n2)OC[C@]3(C)C(N)=O)C(F)(F)F)cc2cn(C3CC3)nc12 [Example 1226] | > 6.70 | < 6.30 | 
COc1cc(C(=O)NC[C@](O)(c2cc3c(c(-c4ccc(F)c(F)c4F)n2)OC[C@]3(C)C(N)=O)C(F)(F)F)cc2cc(C(F)(F)F)cnc12 [Example 512] |  | < 6.30 | > 6.70
COc1cc(C(=O)NC[C@](O)(c2cc3c(c(-c4ccc(F)c(Cl)c4)n2)OC[C@]3(C)C(N)=O)C2CC2)cc2cc(C3CC3)nn12 [Example 703] |  | > 6.30 | > 6.70
COc1cc(C(=O)NC[C@](O)(c2cc3c(c(-c4ccc(F)cc4)n2)OC[C@]3(C)C(N)=O)C(F)(F)F)cc2nn(C3CC3)cc12 [Example 874] | < 6.70 | < 6.30 | 
COc1cc(C(=O)NC[C@](O)(c2cc3c(c(-c4csc(C(F)(F)F)n4)n2)OC[C@]3(C)C(N)=O)C(F)(F)F)cc2cn(C3CC3)nc12 [Example 951] | > 6.70 | > 6.30 | 
Cc1cnc2c(OC(F)F)cc(C(=O)NC[C@](O)(c3cc4c(c(-c5ccc(F)c(Cl)c5)n3)OC[C@]4(C)C(N)=O)C3(F)CC3)cc2c1 [Example 715] |  | > 6.30 | > 6.70
C[C@]1(C(N)=O)COc2c1cc([C@@](O)(CNC(=O)c1cc(F)c3nn(C(F)F)cc3c1)C1CC1)nc2-c1ccc(F)c(Cl)c1F [Example 571] |  | > 6.30 | > 6.70
COc1cc(C(=O)NC[C@](O)(c2cc3c(c(-c4cccc(F)c4F)n2)OC[C@]3(C)C(N)=O)C(F)(F)F)cc2cn(C3CC3)nc12 [Example 988] | > 6.70 | > 6.30 | 

Compound | pEC50 [1, 3] | pEC50 [2] | pEC50 [1, 4]
COc1cc(C(=O)NC[C@](O)(c2cc3c(c(-c4ccc(OC5CC5)cc4)n2)OC[C@]3(C)C(N)=O)C(F)(F)F)cc2cn(C3CC3)nc12 [Example 976] | > 6.70 | < 6.30 | 
COc1cc(C(=O)NC[C@](O)(c2cc3c(c(-c4cc(F)c(F)c(Cl)c4)n2)OC[C@]3(C)C(N)=O)C(F)(F)F)cc2cc(Cl)c(C)nc12 [Example 784] |  | > 6.30 | > 6.70
Cc1cnc2c(OC(F)(F)F)cc(C(=O)NC[C@](O)(c3cc4c(c(-c5ccc(F)c(F)c5F)n3)OC[C@]4(C)C(N)=O)C(F)(F)F)cc2c1 [Example 515] |  | > 6.30 | > 6.70
C[C@]1(C(N)=O)COc2c1cc([C@@](O)(CNC(=O)c1cc(Cl)c3nn(C4CC4)cc3c1)C1CC1)nc2-c1cc(Cl)c(F)cc1F [Example 668] |  | > 6.30 | > 6.70
Cc1cnc2c(OC(F)F)cc(C(=O)NC[C@](O)(c3cc4c(c(-c5ccc6c(c5)OC(F)(F)O6)n3)OC[C@]4(C(N)=O)C(F)F)C3CC3)cc2c1 [Example 1020] | < 6.70 | < 6.30 | 
COc1cc(C(=O)NC[C@](O)(c2cc3c(c(-c4cc(F)c(F)c(Cl)c4)n2)OC[C@]3(C)C(N)=O)C(F)(F)F)cc2cc(Br)cnc12 [Example 785] |  | > 6.30 | > 6.70
COc1cc(C(=O)NC[C@](O)(c2cc3c(c(-c4ccc(C(F)F)cc4)n2)OC[C@]3(C)C(N)=O)C(F)(F)F)cc2cn(C3CC3)nc12 [Example 896] | > 6.70 | < 6.30 | 
COc1cc(C(=O)NC[C@](O)(c2cc3c(c(-c4ccc(Cl)cc4F)n2)OC[C@]3(C)C(N)=O)C2CC2)cc2cn(C3(Cl)CC3)nc12 [Example 843] | > 6.70 | > 6.30 | 
COc1cc(C(=O)NC[C@](O)(c2cc3c(c(-c4cc(Cl)c(F)c(Cl)c4)n2)OC[C@]3(C)C(N)=O)C(F)(F)F)cc2cc(Cl)c(C)nc12 [Example 674] |  | < 6.30 | > 6.70
COc1cc(C(=O)NC[C@](O)(c2cc3c(c(-c4ccc5c(c4)OC(F)(F)O5)n2)OC[C@]3(C)C(N)=O)C2CC2)cc2c(F)n(C3CC3)nc12 [Example 650] |  | > 6.30 | > 6.70
COc1cc(C(=O)NC[C@](O)(c2cc3c(c(-c4cc(Br)c(F)cc4F)n2)OC[C@]3(C)C(N)=O)C2CC2)cc2cn(C3(F)CC3)nc12 [Example 1089] | > 6.70 | > 6.30 | 
COc1cc(C(=O)NC[C@](O)(c2cc3c(c(-c4ccc5c(c4)OC(F)(F)O5)n2)OC[C@@]3(C(N)=O)C(F)F)C2CC2)cc2cn(C3CC3)nc12 [Example 1011] | > 6.70 | > 6.30 | 
COc1cc(C(=O)NC[C@](O)(c2cc3c(c(-c4cc(Cl)c(F)c(Cl)c4)n2)OC[C@]3(C)C(N)=O)C(F)(F)F)cc2cc(Br)cnc12 [Example 672] |  | < 6.30 | > 6.70
COc1cc(C(=O)NC[C@](O)(c2cc3c(c(-c4ccc(F)c(Cl)c4)n2)OC[C@]3(C)C(N)=O)C2CC2)cc2cn(C3(F)CC3)nc12 [Example 836] | > 6.70 | > 6.30 | 
Cc1cnc2c(Cl)cc(C(=O)NC[C@](O)(c3cc4c(c(-c5ccc(F)cc5)n3)OC[C@]4(C)C(N)=O)C3CC3)cc2c1 [Example 740] |  | > 6.30 | > 6.70
COc1cc(C(=O)NC[C@](O)(c2cc3c(c(-c4ccc(F)cc4Cl)n2)OC[C@]3(C)C(N)=O)C(F)(F)F)cc2cc(Cl)c(C)nc12 [Example 509] |  | > 6.30 | > 6.70
COc1ccc(C(=O)NC[C@](O)(c2cc3c(c(-c4ccc(F)c(Cl)c4)n2)OC[C@]3(C)C(N)=O)C(F)(F)F)cc1NC(=O)NC1CC1 [Example 627] |  | < 6.30 | > 6.70
COc1cc(C(=O)NC[C@](O)(c2cc3c(c(-c4cccc(Cl)c4)n2)OC[C@]3(C)C(N)=O)C(F)(F)F)cc2cn(C3CC3)nc12 [Example 975] | > 6.70 | > 6.30 | 
COc1cc(C(=O)NC[C@](O)(c2cc3c(c(-c4ccc(Cl)cc4F)n2)OC[C@]3(C)C(N)=O)C(F)(F)F)cc2cn(C3CC3)nc12 [Example 987] | > 6.70 | > 6.30 | 
COc1cc(C(=O)NC[C@](O)(c2cc3c(c(-c4cc(Cl)ccc4F)n2)OC[C@]3(C)C(N)=O)C2(F)CC2)cc2cc(Cl)c(C)nc12 [Example 737] |  | > 6.30 | > 6.70
COc1cc(C(=O)NC[C@](O)(c2cc3c(c(-c4ccc5c(c4)OC(F)(F)O5)n2)OC[C@]3(C)C(N)=O)C(F)(F)F)cc2cc(C)nnc12 [Example 764] |  | > 6.30 | > 6.70
CNC(=O)[C@@]1(C)COc2c1cc([C@@](O)(CNC(=O)c1cc(OC)c3nn(C(F)F)cc3c1)C(F)(F)F)nc2-c1ccc(F)cc1 [Example 1191] | > 6.70 | > 6.30 | 
